Measured values as given in article PMC9626498 (Scientific Reports, 2022).

Legend:
[1] = target: acetylcholinesterase (AChE) (Electrophorus electricus, UniProt O42275); assay: modified Ellman spectrophotometric assay; assay type: biochemical
[2] = target: butyrylcholinesterase (BChE) (Equus caballus, UniProt P81908); assay: modified Ellman spectrophotometric assay; assay type: biochemical
Sequence of butyrylcholinesterase (BChE) (P81908 whole entry): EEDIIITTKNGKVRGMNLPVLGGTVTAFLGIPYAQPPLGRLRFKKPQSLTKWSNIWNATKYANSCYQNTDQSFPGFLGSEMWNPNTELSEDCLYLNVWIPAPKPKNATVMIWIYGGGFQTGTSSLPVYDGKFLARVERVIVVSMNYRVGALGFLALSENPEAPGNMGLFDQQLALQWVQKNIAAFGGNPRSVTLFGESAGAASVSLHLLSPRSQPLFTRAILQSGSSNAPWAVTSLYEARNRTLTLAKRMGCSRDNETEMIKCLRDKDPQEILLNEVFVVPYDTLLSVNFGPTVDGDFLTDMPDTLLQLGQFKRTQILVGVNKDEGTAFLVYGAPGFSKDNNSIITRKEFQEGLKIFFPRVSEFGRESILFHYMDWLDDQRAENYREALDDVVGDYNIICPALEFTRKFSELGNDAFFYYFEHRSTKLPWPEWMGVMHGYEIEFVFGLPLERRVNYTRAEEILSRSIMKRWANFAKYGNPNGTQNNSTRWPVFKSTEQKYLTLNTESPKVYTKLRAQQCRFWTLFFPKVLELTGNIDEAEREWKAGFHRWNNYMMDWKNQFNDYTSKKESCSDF

Sequence of acetylcholinesterase (AChE) (O42275 24-633): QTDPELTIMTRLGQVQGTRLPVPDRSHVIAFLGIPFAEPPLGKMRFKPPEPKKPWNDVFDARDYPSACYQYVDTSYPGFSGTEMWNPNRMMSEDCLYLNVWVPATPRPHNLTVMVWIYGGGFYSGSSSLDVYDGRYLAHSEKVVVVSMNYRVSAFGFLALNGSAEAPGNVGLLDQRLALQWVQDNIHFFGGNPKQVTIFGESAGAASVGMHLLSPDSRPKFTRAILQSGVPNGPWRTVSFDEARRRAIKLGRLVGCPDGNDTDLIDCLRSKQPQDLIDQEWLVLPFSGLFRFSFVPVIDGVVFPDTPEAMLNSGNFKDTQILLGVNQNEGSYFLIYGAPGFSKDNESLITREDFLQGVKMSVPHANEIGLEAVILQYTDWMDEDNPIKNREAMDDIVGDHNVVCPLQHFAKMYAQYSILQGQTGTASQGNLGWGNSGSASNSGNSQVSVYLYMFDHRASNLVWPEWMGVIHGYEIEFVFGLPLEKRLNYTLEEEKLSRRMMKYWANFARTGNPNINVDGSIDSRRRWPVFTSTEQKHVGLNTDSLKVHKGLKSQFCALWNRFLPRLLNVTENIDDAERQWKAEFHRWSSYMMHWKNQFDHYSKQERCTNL

C[C@@H]1O[C@@H](O[C@H]2C(=O)c3c(O)cc(O)cc3O[C@@H]2c2cc(O)c(O)c(O)c2)[C@H](O)[C@H](O)[C@H]1O [compound 1, dihydromyricetin 3-O-rhamnoside]
IC50 [1]: 70 ± 8 µM
IC50 [2]: 71 ± 4 µM
